These results are taken from patent US11091522B2, “Peptidomimetic macrocycles and uses thereof” (priority 2018, dated 2021).

In general, inhibition refers to the drop in the measured response relative to a control, in per cent. Broadly, the AUC(0-t) is the area under the concentration-time curve up to a stated or last time point. A word on the Cmax: it is the highest concentration seen after dosing.

For one data set, the system named is MCF7 cells. The class given is cell-based, human. The following applies: Homo sapiens.
The nature of data set [1]: Pharmacokinetics of AP1 and palbociclib in non-tumor-bearing nu/nu mice. As to conditions: nu/nu, mouse, plasma, po, 75 mg/kg, nu/nu mice; for AUC(0-t): AUClast.
Data set [2] relates to SJSA1 osteosarcoma cancer cells. Kind of data set: cells. The following applies: Homo sapiens, SJSA-1, 120 h, read-out: IC50, cellular proliferation.
A further data set deals with SJSA-1 cells. Kind of data set: Cell lysis by peptidomimetic macrocycles (LDH release). It is filed as cell-based, human. How it is done: SJSA-1 cells were plated out one day in advance in clear, flat-bottom plates at a density of 7500 cells/well with 100 μL/well of growth media. Row H columns 10-12 were left empty to be treated with media alone. On the day of the assay, the media was exchanged with RPMI 1% FBS media to result in 90 μL of media per well. 10 mM stock solutions of the peptidomimetic macrocycles were prepared in 100% DMSO. The peptidomimetic macrocycles were diluted serially in 100% DMSO, and further diluted 20-fold in sterile water to prepare working stock solutions in 5% DMSO/water. The concentrations of the peptidomimetic macrocycles ranged from 500 μM to 62.5 μM.
10 μL of each compound solution was added to the 90 μL of SJSA-1 cells to yield final concentration of 50 μM to 6.25 μM in 0.5% DMSO-containing media. The negative control (non-lytic sample) was 0.5% of DMSO alone. The positive control (lytic) samples included 10 μM of Melittin and 1% Triton X-100. The cell plates were incubated for 1 h at 37° C. After incubation for 1 h, the morphology of the cells was examined by microscope. The plates were then centrifuged at 1200 rpm for 5 min at room temperature. 40 μL of the supernatant for each peptidomimetic macrocycle and control sample was transferred to clear assay plates. LDH release was measured using an LDH cytotoxicity assay kit.
On the technique in general: Release of lactate dehydrogenase indicates damage to the cell membrane.

The subject of a further data set is Caspase 3. Kind of data set: Caspase 3 detection assay in SJSA-1 cells. It is filed as cell-based, human. The following applies: SJSA-1 cells, 48 h, Caspase 3 activation over DMSO-treated cells. As to the method:
One the day of the assay, the media was replaced with fresh RPMI-11% FBS assay media. […] Control wells contained no cells, and received 200 μL of the assay media.
The solutions were serially diluted 33.3 times using sterile water to provide a range of 10× working stock solutions. […] 20 μL of the 10× working stock solutions were added to the appropriate wells. Row H of the plates had control wells. Wells H1-H3 received 20 μL of the assay media. […] Wells H10-H12 received media and had no cells. […] Nutlin-3a was diluted using the same dilution scheme as the peptides.
10 μL of the 10× stock solutions were added to the appropriate wells to achieve the final concentrations in a total volume of 100 μL. […] 48 h after incubation, 80 μL of the media was aspirated from each well. 100 μL of Caspase 3/7Glo assay reagent was added to each well. […] Data were analyzed as Caspase 3 activation over DMSO-treated cells.

Data set [3] is described as follows: Circular dichroism (CD) analysis of alpha-helicity. The class given is physicochemical. As to conditions: difference 50% TFE minus benign. How it is done: Peptide solutions were analyzed by CD spectroscopy using a spectropolarimeter. A temperature controller was used to maintain temperature control of the optical cell. Results are expressed as mean molar ellipticity [θ] (deg cm^2 dmol^−1) as calculated from the equation [θ]=θobs·MRW/10*l*c where θobs is the observed ellipticity in millidegrees, MRW is the mean residue weight of the peptide (peptide molecular weight/number of residues), 1 is the optical path length of the cell in centimeters, and c is the peptide concentration in mg/ml. Peptide concentrations were determined by amino acid analysis. Stock solutions of peptides were prepared in benign CD buffer (20 mM phosphoric acid, pH 2). The stock solutions were used to prepare peptide solutions of 0.05 mg/ml in either benign CD buffer or CD buffer with 50% trifluoroethanol (TFE) for analyses in a 10 mm path length cell. Variable wavelength measurements of peptide solutions were scanned at 4° C. from 195 to 250 nm, in 0.2 nm increments, and a scan rate 50 nm per minute. The average of six scans is reported.
On the technique in general: CD spectra are sensitive to the conformation of chiral molecules.

The mark [4] stands for this setting: Alone, AP1 20 mg/kg or palbociclib 75 mg/kg alone.
[5] abbreviates: Co-administered, AP1 20 mg/kg with palbociclib 75 mg/kg.

Bridge positions count the residues as written; N and C are the ends. Square brackets hold non-standard residues; d marks the D form. Peptide text beside a SMILES is read from it. R8 = C=CCCCCCC[C@@](C)(N)C(=O)O; S5 = C=CCCC[C@](C)(N)C(=O)O; Nle = CCCC[C@H](N)C(=O)O

In the case of `CC(=O)c1c(C)c2cnc(Nc3ccc(N4CCNCC4)cn3)nc2n(C2CCCC2)c1=O` [palbociclib], in the data set on MCF7 cells, the inhibition at 0.0003 µM was -10%, the inhibition at 0.001 µM was -19%, the inhibition at 0.003 µM is -9.7% and the inhibition at 0.01 µM was determined as 6.6%. Further, in the data set on MCF7 cells, the inhibition at 0.03 µM came to 21.1%, the inhibition at 0.1 µM was 40.9%, the inhibition at 0.3 µM is 62.9% and the inhibition at 1 µM was 78.9%. Besides, in the data set with MCF7 cells, the inhibition at 3 µM came to 84%, the inhibition at 10 µM is 84.3% and the inhibition at 30 µM came to 100%. Also, in data set [1] (setting [4]), the AUC(0-t) worked out at 37000 ng·h/mL and the Cmax turned out to be 2900 ng/mL. In data set [1] (setting [5]), the AUC(0-t) worked out at 29000 ng·h/mL and the maximum concentration (Cmax) amounted to 2600 ng/mL. Besides, the IC50 in data set [2] is 60 nM.
With `CSCC[C@H](NC(=O)[C@H](C)NC(=O)[C@H](C)NC(=O)[C@]1(C)CCCC=CCCCCCC[C@@](C)(NC(=O)[C@H](Cc2ccccc2)NC(=O)[C@@H](NC(=O)[C@H](CC(C)C)NC(C)=O)[C@@H](C)O)C(=O)N[C@@H](C)C(=O)N[C@@H](Cc2ccc(O)cc2)C(=O)N[C@@H](Cc2c[nH]c3ccccc23)C(=O)N[C@@H](C)C(=O)N[C@@H](C)C(=O)N[C@@H](CC(C)C)C(=O)N1)C(=O)N[C@H](C)C(N)=O` (single isomer, unassigned) [compound 72], the “6.25 μM % Lysed cells (1 h LDH)” value with SJSA-1 cells (6.25 μM) was 2%. Besides, the “25 μM % Lysed cells (1 h LDH)” value in the data set with SJSA-1 cells (25 μM) is 0%. The “50 μM % Lysed cells (1 h LDH)” value in the data set with SJSA-1 cells (50 μM) is 3%. The “caspase 0.3 μM” value in the data set on Caspase 3 (0.3 μM) is listed as 1. In the data set with Caspase 3 (3 μM), the “caspase 3 μM” value came out at 1. Further, in the data set on Caspase 3 (10 μM), the “caspase 10 μM” value came to 4. Further, the “caspase 30 μM” value in the data set on Caspase 3 (30 μM) is reported as 10.
Take `CC(=O)N[C@@H](CC(C)C)C(=O)N[C@H](C(=O)N[C@@H](Cc1ccccc1)C(=O)N[C@]1(C)CCCCCCC=CCCC[C@@](C)(C(=O)N[C@@H](CO)C(=O)N[C@@H](C)C(=O)N[C@@H](Cc2ccccc2)C(N)=O)NC(=O)[C@H](CC(C)C)NC(=O)[C@H](CCC(N)=O)NC(=O)[C@H](C)NC(=O)[C@H](Cc2c[nH]c3ccccc23)NC(=O)[C@H](Cc2ccc(O)cc2)NC(=O)[C@H](C)NC1=O)[C@@H](C)O` [compound 7] (Ac-LTF[R8]AYWAQL[S5]SAF-NH2; staple 4-11): in data set [3], the “Molar Ellipticity TFE-Molar Ellipticity Benign” value is listed as −20045.4 deg cm^2 dmol^−1.
As for `CC[C@H](C)[C@H](NC(=O)[C@H](C)NC(=O)[C@H](C)NC(=O)[C@]1(C)CCC/C=C/CCCCCC[C@@](C)(NC(=O)[C@H](Cc2ccccc2)NC(=O)[C@@H](NC(=O)[C@H](CC(C)C)NC(C)=O)[C@@H](C)O)C(=O)N[C@@H](C)C(=O)N[C@@H](Cc2ccc(O)cc2)C(=O)N[C@@H](Cc2c[nH]c3ccccc23)C(=O)N[C@@H](C)C(=O)N[C@@H](CCC(N)=O)C(=O)N[C@@H](CC(C)C)C(=O)N1)C(=O)N[C@H](C)C(N)=O` [compound 71], the “Molar Ellipticity TFE-Molar Ellipticity Benign” value in data set [3] is reported as −17835.9 deg cm^2 dmol^−1.
On the same count and under the same terms, as for `CCCC[C@H](NC(=O)[C@H](CCC(N)=O)NC(=O)[C@H](CCC(N)=O)NC(=O)[C@]1(C)CCCC=CCCCCCC[C@@](C)(NC(=O)[C@H](Cc2ccccc2)NC(C)=O)C(=O)N[C@@H](C)C(=O)N[C@@H](Cc2ccc(O)cc2)C(=O)N[C@@H](Cc2c[nH]c3ccccc23)C(=O)N[C@@H]([C@@H](C)O)C(=O)N[C@@H](C)C(=O)N[C@@H](CC(C)C)C(=O)N1)C(=O)N[C@@H](C(N)=O)C(C)C` [compound 41] (Ac-F[R8]AYWTAL[S5]QQ[Nle][dV]-NH2; staple 2-9), the figure is 20410.4 deg cm^2 dmol^−1.
